{
  "source": "PubChem BioAssay (NCI)",
  "experiment_in_all_cases": "NCI-60 cell line screen, 48 h",
  "key": {"786-0 renal": {"test_system": "786-0 renal"}, "A549 NSCLC": {"test_system": "A549 NSCLC"}, "ACHN renal": {"test_system": "ACHN renal"}, "BT-549 breast": {"test_system": "BT-549 breast"}, "CCRF-CEM leukemia": {"test_system": "CCRF-CEM leukemia"}, "DU-145 prostate": {"test_system": "DU-145 prostate"}, "EKVX NSCLC": {"test_system": "EKVX NSCLC"}, "HCC-2998 colon": {"test_system": "HCC-2998 colon"}, "HCT-116 colon": {"test_system": "HCT-116 colon"}, "HCT-15 colon": {"test_system": "HCT-15 colon"}, "HL-60(TB) leukemia": {"test_system": "HL-60(TB) leukemia"}, "HOP-62 NSCLC": {"test_system": "HOP-62 NSCLC"}, "HOP-92 NSCLC": {"test_system": "HOP-92 NSCLC"}, "HS 578T breast": {"test_system": "HS 578T breast"}, "HT29 colon": {"test_system": "HT29 colon"}, "IGROV1 ovarian": {"test_system": "IGROV1 ovarian"}, "K-562 leukemia": {"test_system": "K-562 leukemia"}, "KM12 colon": {"test_system": "KM12 colon"}, "LOX IMVI melanoma": {"test_system": "LOX IMVI melanoma"}, "M14 melanoma": {"test_system": "M14 melanoma"}, "MALME-3M melanoma": {"test_system": "MALME-3M melanoma"}, "MCF7 breast": {"test_system": "MCF7 breast"}, "MDA-MB-231 breast": {"test_system": "MDA-MB-231 breast"}, "MDA-MB-435": {"test_system": "MDA-MB-435"}, "MOLT-4 leukemia": {"test_system": "MOLT-4 leukemia"}, "NCI-H226 lung": {"test_system": "NCI-H226 lung"}, "NCI-H23 lung": {"test_system": "NCI-H23 lung"}, "NCI-H460 lung": {"test_system": "NCI-H460 lung"}, "NCI-H522 lung": {"test_system": "NCI-H522 lung"}, "NCI/ADR-RES ovarian": {"test_system": "NCI/ADR-RES ovarian"}, "OVCAR-4 ovarian": {"test_system": "OVCAR-4 ovarian"}, "OVCAR-5 ovarian": {"test_system": "OVCAR-5 ovarian"}, "OVCAR-8 ovarian": {"test_system": "OVCAR-8 ovarian"}, "PC-3 prostate": {"test_system": "PC-3 prostate"}, "RPMI-8226 leukemia": {"test_system": "RPMI-8226 leukemia"}, "SF-268 CNS": {"test_system": "SF-268 CNS"}, "SF-295 CNS": {"test_system": "SF-295 CNS"}, "SF-539 CNS": {"test_system": "SF-539 CNS"}, "SK-MEL-2 melanoma": {"test_system": "SK-MEL-2 melanoma"}, "SK-MEL-28 melanoma": {"test_system": "SK-MEL-28 melanoma"}, "SK-MEL-5 melanoma": {"test_system": "SK-MEL-5 melanoma"}, "SK-OV-3 ovarian": {"test_system": "SK-OV-3 ovarian"}, "SN12C renal": {"test_system": "SN12C renal"}, "SNB-19 CNS": {"test_system": "SNB-19 CNS"}, "SNB-75 CNS": {"test_system": "SNB-75 CNS"}, "SR leukemia": {"test_system": "SR leukemia"}, "SW-620 colon": {"test_system": "SW-620 colon"}, "T-47D breast": {"test_system": "T-47D breast"}, "TK-10 renal": {"test_system": "TK-10 renal"}, "U251 CNS": {"test_system": "U251 CNS"}, "UACC-257 melanoma": {"test_system": "UACC-257 melanoma"}, "UACC-62 melanoma": {"test_system": "UACC-62 melanoma"}, "UO-31 renal": {"test_system": "UO-31 renal"}},
  "note": "Several values for one entry are separate records, joined by “and”; a condition that tells them apart may be missing. Equal entries are not always repeated.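 Each compound was tested at five concentrations against cells in 96-well plates for 48 hours. The concentration for 50% growth inhibition is given as GI50. TGI: total growth inhibition.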",
  "data": [
    {"smiles": "COC(=O)[C@@H](C)C[C@H](Cc1ccccc1)NC(=O)c1cccc([C@@H](C[C@H](C(C)C)N(C)C(=O)[C@@H](NC(=O)[C@H]2CCCCN2C)C2CC2)OC(C)=O)n1", "values": [
      {"measurement": "TGI", "setting": "786-0 renal", "result": "11.3 µM and > 100 µM"},
      {"measurement": "TGI", "setting": "A549 NSCLC", "result": "33.3 µM and > 100 µM"},
      {"measurement": "TGI", "setting": "ACHN renal", "result": "33.3 µM and > 100 µM"},
      {"measurement": "GI50", "setting": "BT-549 breast", "result": 0.00333, "unit": "µM"},
      {"measurement": "GI50", "setting": "CCRF-CEM leukemia", "result": "0.00333 µM and 0.0234 µM"},
      {"measurement": "TGI", "setting": "CCRF-CEM leukemia", "result": "33.3 µM and > 100 µM"},
      {"measurement": "GI50", "setting": "DU-145 prostate", "result": 0.00333, "unit": "µM"},
      {"measurement": "TGI", "setting": "DU-145 prostate", "result": "33.3 µM and > 100 µM"},
      {"measurement": "TGI", "setting": "EKVX NSCLC", "result": "33.3 µM and > 100 µM"},
      {"measurement": "TGI", "setting": "HCC-2998 colon", "result": "33.3 µM and > 100 µM"},
      {"measurement": "GI50", "setting": "HCT-116 colon", "result": 0.00333, "unit": "µM"},
      {"measurement": "TGI", "setting": "HCT-116 colon", "result": "3.98 µM and 14.4 µM"},
      {"measurement": "TGI", "setting": "HCT-15 colon", "result": "20.6 µM and > 100 µM"},
      {"measurement": "TGI", "setting": "HL-60(TB) leukemia", "result": 0.0111, "unit": "µM"},
      {"measurement": "GI50", "setting": "HOP-62 NSCLC", "result": "0.00333 µM and 0.0296 µM"},
      {"measurement": "TGI", "setting": "HOP-92 NSCLC", "result": "13.6 µM and 86.6 µM"},
      {"measurement": "TGI", "setting": "HS 578T breast", "result": "33.3 µM and > 100 µM"},
      {"measurement": "GI50", "setting": "HT29 colon", "result": 0.00333, "unit": "µM"},
      {"measurement": "GI50", "setting": "IGROV1 ovarian", "result": 0.00333, "unit": "µM"},
      {"measurement": "TGI", "setting": "IGROV1 ovarian", "result": "33.3 µM and > 100 µM"},
      {"measurement": "GI50", "setting": "K-562 leukemia", "result": 0.00333, "unit": "µM"},
      {"measurement": "TGI", "setting": "K-562 leukemia", "result": "33.3 µM and > 100 µM"},
      {"measurement": "GI50", "setting": "KM12 colon", "result": "0.00333 µM and 0.0298 µM"},
      {"measurement": "TGI", "setting": "KM12 colon", "result": "33.3 µM and > 100 µM"},
      {"measurement": "GI50", "setting": "LOX IMVI melanoma", "result": "0.00333 µM and 0.019 µM"},
      {"measurement": "TGI", "setting": "LOX IMVI melanoma", "result": "33.3 µM and > 100 µM"},
      {"measurement": "TGI", "setting": "M14 melanoma", "result": 0.0358, "unit": "µM"},
      {"measurement": "TGI", "setting": "MALME-3M melanoma", "result": "33.3 µM and > 100 µM"},
      {"measurement": "GI50", "setting": "MCF7 breast", "result": 0.00333, "unit": "µM"},
      {"measurement": "TGI", "setting": "MCF7 breast", "result": "33.3 µM and > 100 µM"},
      {"measurement": "GI50", "setting": "MDA-MB-231 breast", "result": "0.00333 µM and 0.0281 µM"},
      {"measurement": "TGI", "setting": "MDA-MB-231 breast", "result": "4.35 µM and 24 µM"},
      {"measurement": "TGI", "setting": "MDA-MB-435", "result": 0.0143, "unit": "µM"},
      {"measurement": "TGI", "setting": "MOLT-4 leukemia", "result": "33.3 µM and > 100 µM"},
      {"measurement": "TGI", "setting": "NCI-H226 lung", "result": "33.3 µM and > 100 µM"},
      {"measurement": "TGI", "setting": "NCI-H23 lung", "result": "33.3 µM and > 100 µM"},
      {"measurement": "GI50", "setting": "NCI-H460 lung", "result": "0.00333 µM and 0.0297 µM"},
      {"measurement": "TGI", "setting": "NCI-H460 lung", "result": "33.3 µM and > 100 µM"},
      {"measurement": "TGI", "setting": "NCI-H522 lung", "result": 37.3, "unit": "µM"},
      {"measurement": "GI50", "setting": "NCI/ADR-RES ovarian", "result": "5.06 µM and 4.67 µM"},
      {"measurement": "TGI", "setting": "NCI/ADR-RES ovarian", "result": "33.3 µM and > 100 µM"},
      {"measurement": "TGI", "setting": "OVCAR-4 ovarian", "result": "33.3 µM and > 100 µM"},
      {"measurement": "TGI", "setting": "OVCAR-5 ovarian", "result": "33.3 µM and > 100 µM"},
      {"measurement": "TGI", "setting": "OVCAR-8 ovarian", "result": "33.3 µM and > 100 µM"},
      {"measurement": "GI50", "setting": "PC-3 prostate", "result": "0.00333 µM and 0.0223 µM"},
      {"measurement": "TGI", "setting": "PC-3 prostate", "result": "33.3 µM and > 100 µM"},
      {"measurement": "GI50", "setting": "RPMI-8226 leukemia", "result": 0.00333, "unit": "µM"},
      {"measurement": "TGI", "setting": "RPMI-8226 leukemia", "result": "7.63 µM and 55.6 µM"},
      {"measurement": "TGI", "setting": "SF-268 CNS", "result": "33.3 µM and > 100 µM"},
      {"measurement": "GI50", "setting": "SF-295 CNS", "result": 0.0363, "unit": "µM"},
      {"measurement": "TGI", "setting": "SF-295 CNS", "result": "> 100", "unit": "µM"},
      {"measurement": "GI50", "setting": "SF-539 CNS", "result": 0.02, "unit": "µM"},
      {"measurement": "TGI", "setting": "SF-539 CNS", "result": 0.0764, "unit": "µM"},
      {"measurement": "GI50", "setting": "SK-MEL-2 melanoma", "result": 0.00333, "unit": "µM"},
      {"measurement": "TGI", "setting": "SK-MEL-2 melanoma", "result": "33.3 µM and > 100 µM"},
      {"measurement": "GI50", "setting": "SK-MEL-28 melanoma", "result": 5.03, "unit": "µM"},
      {"measurement": "TGI", "setting": "SK-MEL-28 melanoma", "result": 33.3, "unit": "µM"},
      {"measurement": "TGI", "setting": "SK-MEL-5 melanoma", "result": 1.14, "unit": "µM"},
      {"measurement": "GI50", "setting": "SK-OV-3 ovarian", "result": "0.00333 µM and 0.0265 µM"},
      {"measurement": "TGI", "setting": "SK-OV-3 ovarian", "result": "33.3 µM and > 100 µM"},
      {"measurement": "TGI", "setting": "SN12C renal", "result": "33.3 µM and > 100 µM"},
      {"measurement": "GI50", "setting": "SNB-19 CNS", "result": 0.00333, "unit": "µM"},
      {"measurement": "TGI", "setting": "SNB-19 CNS", "result": "33.3 µM and > 100 µM"},
      {"measurement": "TGI", "setting": "SNB-75 CNS", "result": "33.3 µM and > 100 µM"},
      {"measurement": "GI50", "setting": "SR leukemia", "result": 0.00333, "unit": "µM"},
      {"measurement": "TGI", "setting": "SR leukemia", "result": "33.3 µM and 69.9 µM"},
      {"measurement": "GI50", "setting": "SW-620 colon", "result": 0.00333, "unit": "µM"},
      {"measurement": "TGI", "setting": "SW-620 colon", "result": "33.3 µM and > 100 µM"},
      {"measurement": "GI50", "setting": "T-47D breast", "result": "> 33.3", "unit": "µM"},
      {"measurement": "TGI", "setting": "T-47D breast", "result": "> 33.3", "unit": "µM"},
      {"measurement": "TGI", "setting": "TK-10 renal", "result": "33.3 µM and > 100 µM"},
      {"measurement": "TGI", "setting": "U251 CNS", "result": "33.3 µM and > 100 µM"},
      {"measurement": "GI50", "setting": "UACC-257 melanoma", "result": "> 100", "unit": "µM"},
      {"measurement": "TGI", "setting": "UACC-257 melanoma", "result": "> 100", "unit": "µM"},
      {"measurement": "GI50", "setting": "UACC-62 melanoma", "result": 0.00333, "unit": "µM"},
      {"measurement": "TGI", "setting": "UACC-62 melanoma", "result": 33.3, "unit": "µM"},
      {"measurement": "GI50", "setting": "UO-31 renal", "result": 0.0766, "unit": "µM"},
      {"measurement": "TGI", "setting": "UO-31 renal", "result": 33.3, "unit": "µM"}
    ]}
  ]
}
